Results from patent US5696151A, “Compounds useful for the inhibition of the replication of HIV-1 and HIV-1 mutants” (priority 1995, dated 1997).
In brackets after ≈: the same amount, converted by molar mass.

Tests used:
Format in all cases: cell-based
HIV-1/100-Ile = assay: Inhibition of HIV-1 induced syncytium formation in CEM cells, RT mutant 100-Ile; conditions: Human immunodeficiency virus 1, CCRF-CEM, 96 h, Table 2B, day 4, averages of 2 to 3 independent experiments, read-out: Antiviral Activity of Comparative Compounds EC50, 100-Ile
Source text: (§1) CEM cells were obtained from the American Tissue Cell Culture Collection (Rockville, Md.). HIV-1(IIIB) was originally obtained from the culture supernatant of persistently HIV-1-infected H9 cells and was provided by R. C. Gallo and M. Popovic (National Cancer Institute, National Institutes of Health, Bethesda, Md.). […] 67: 5353-5359 (1993); HIV-1/Lys-138 ("Lys-138") was selected for resistance against TSAO-m^3T as described in Balzarini et al, Virology 192: 246-253 (1993) and Balzarini et al, Proc. Nat. Acad. Sci. USA 90: 6952-6956 (1993); HIV-1/181-Cys ("181-Cys") was selected for resistance against pyridinone L-697,661 as described in Balzarini et al, Virology 192: 246-253 (1993); and HIV-1/188-His ("188-His") was selected for resistance against HEPT as described in Balzarini et al, Mol. Pharmocol. 44: 694-701 (1993). 188-His was then further converted to HIV-1/188-Leu "188-Leu") upon further passage in cell culture in the absence of the HEPT.
(§2) CEM cells were suspended at ≈300,000 cells per ml of culture medium and infected with approximately 100 CCID50 (CCID50 being the 50% cell culture infective dose) of HIV-1(IIIB) or one of the HIV-1 RT mutant strains described above. Then 100 μl of the infected cell suspensions was added to 200 μl microtiter plate wells containing 100 μl of appropriate serial (5-fold) dilutions of the test compounds. The inhibitory effect of the test compounds on HIV-1 induced syncytium formation in CEM cells was examined microscopically on day 4 post infection.

HIV-1/181-Cys = assay: Inhibition of HIV-1 induced syncytium formation in CEM cells, RT mutant 181-Cys; conditions: Human immunodeficiency virus 1, CCRF-CEM, 96 h, Table 2B, day 4, averages of 2 to 3 independent experiments, read-out: Antiviral Activity of Comparative Compounds EC50, 181-Cys
Source text: as §1, §2

in vitro = conditions: human, cem cells, CC50 (50% cytostatic concentration), Table 2B; CEM cell proliferation; averages of 2 to 3 independent experiments
Source text: as §1
^b 50% cytostatic concentration (i.e., compound concentration require
to inhibit CEM cell proliferation by 50%)

HIV-1/Lys-138 = assay: Inhibition of HIV-1 induced syncytium formation in CEM cells, RT mutant 138-Lys; conditions: Human immunodeficiency virus 1, CCRF-CEM, 96 h, Table 2B, day 4, averages of 2 to 3 independent experiments, read-out: Antiviral Activity of Comparative Compounds EC50, 138-Lys
Source text: as §1, §2

HIV-1(IIIB) = assay: Inhibition of HIV-1 induced syncytium formation in CEM cells, wild type; conditions: Human immunodeficiency virus 1, IIIB, CCRF-CEM, 96 h, Table 2B, WT = HIV-1(IIIB), day 4, averages of 2 to 3 independent experiments, read-out: Antiviral Activity of Comparative Compounds EC50, WT
Source text: as §1, §2

HIV-1/106-Ala = assay: Inhibition of HIV-1 induced syncytium formation in CEM cells, RT mutant 106-Ala; conditions: Human immunodeficiency virus 1, CCRF-CEM, 96 h, Table 2B, day 4, averages of 2 to 3 independent experiments, read-out: Antiviral Activity of Comparative Compounds EC50, 106-Ala
Source text: as §1, §2

| SMILES | EC50 (HIV-1/100-Ile) [µg/mL] | EC50 (HIV-1/181-Cys) [µg/mL] | CC50 (in vitro) [µg/mL] | EC50 (HIV-1/Lys-138) [µg/mL] | EC50 (HIV-1(IIIB)) [µg/mL] | EC50 (HIV-1/106-Ala) [µg/mL] |
| --- | --- | --- | --- | --- | --- | --- |
| Cc1occc1C(=O)Nc1ccc(Cl)c(C(=O)OC(C)C)c1 [Compound 48] | 6.5 (≈ 20.2 µM) | 6 (≈ 18.6 µM) | 3.8 (≈ 11.8 µM) | 3.5 (≈ 10.9 µM) | 0.45 (≈ 1.4 µM) | 6.5 (≈ 20.2 µM) |
| Cc1occc1C(=S)Nc1ccc(Cl)c(C(=O)OC(C)C)c1 [Compound 49] | 0.6 (≈ 1.78 µM) | 0.2 (≈ 0.592 µM) | 5.2 (≈ 15.4 µM) | 0.6 (≈ 1.78 µM) | 0.007 (≈ 0.0207 µM) | 0.6 (≈ 1.78 µM) |
| C=C(C)COC(=O)c1cc(NC(=O)c2ccoc2C)ccc1Cl [Compound 50] | 5 (≈ 15 µM) | 1.9 (≈ 5.69 µM) | 3.7 (≈ 11.1 µM) | 1 (≈ 3 µM) | 0.15 (≈ 0.449 µM) | 1 (≈ 3 µM) |
| C=C(C)COC(=O)c1cc(NC(=S)c2ccoc2C)ccc1Cl [Compound 51] | 0.8 (≈ 2.29 µM) | 0.1 (≈ 0.286 µM) | 6.7 (≈ 19.2 µM) | 0.03 (≈ 0.0858 µM) | 0.006 (≈ 0.0172 µM) | 0.03 (≈ 0.0858 µM) |
| Cc1occc1C(=O)Nc1ccc(Cl)c(COC(C)(C)C)c1 [Compound 52] | 8.5 (≈ 26.4 µM) | ≥ 10 | 6.2 (≈ 19.3 µM) | 4 (≈ 12.4 µM) | 0.7 (≈ 2.18 µM) | 5.5 (≈ 17.1 µM) |
| Cc1occc1C(=S)Nc1ccc(Cl)c(COC(C)(C)C)c1 [Compound 53] | 0.85 (≈ 2.52 µM) | 0.55 (≈ 1.63 µM) | 18 (≈ 53.3 µM) | 0.08 (≈ 0.237 µM) | 0.03 (≈ 0.0888 µM) | 0.29 (≈ 0.858 µM) |
| Cc1occc1C(=O)Nc1ccc(Cl)c(C(=O)OC(C)C2CC2)c1 (stereo not drawn) [Compound 54] | > 10 | 1 (≈ 2.88 µM) | 44 (≈ 127 µM) | > 10 | 0.6 (≈ 1.73 µM) | 5 (≈ 14.4 µM) |
| Cc1occc1C(=S)Nc1ccc(Cl)c(C(=O)OC(C)C2CC2)c1 (stereo not drawn) [Compound 55] | 0.65 (≈ 1.79 µM) | 0.11 (≈ 0.302 µM) | 17 (≈ 46.7 µM) | 0.18 (≈ 0.495 µM) | 0.009 (≈ 0.0247 µM) | 0.08 (≈ 0.22 µM) |
| COc1ccc(NC(=O)c2ccoc2C)cc1CC(=O)OC(C)C [Compound 56] | > 10 | > 10 | 52 (≈ 157 µM) | ≥ 10 | 0.7 (≈ 2.11 µM) | 6.5 (≈ 19.6 µM) |
| COc1ccc(NC(=S)c2ccoc2C)cc1CC(=O)OC(C)C [Compound 57] | 1.3 (≈ 3.74 µM) | 0.5 (≈ 1.44 µM) | > 100 | 0.08 (≈ 0.23 µM) | 0.009 (≈ 0.0259 µM) | 0.2 (≈ 0.576 µM) |
| Cc1sccc1C(=O)Nc1ccc(Cl)c(C=NOC(C)(C)C)c1 [Compound 60] | 4.5 (≈ 12.8 µM) | 3 (≈ 8.55 µM) | 14 (≈ 39.9 µM) | 1.57 (≈ 4.47 µM) | 0.23 (≈ 0.656 µM) | 1.6 (≈ 4.56 µM) |
| Cc1sccc1C(=S)Nc1ccc(Cl)c(C=NOC(C)(C)C)c1 [Compound 61] | 0.2 (≈ 0.545 µM) | 0.2 (≈ 0.545 µM) | 12 (≈ 32.7 µM) | 0.05 (≈ 0.136 µM) | 0.01 (≈ 0.0273 µM) | 0.2 (≈ 0.545 µM) |
| CC(C)OC(=O)c1cc(NC(=O)c2ccccc2)ccc1Cl [Compound 62] | 3.5 (≈ 11 µM) | 5.5 (≈ 17.3 µM) | 6.2 (≈ 19.5 µM) | 5 (≈ 15.7 µM) | 0.4 (≈ 1.26 µM) | 5 (≈ 15.7 µM) |
| CC(C)OC(=O)c1cc(NC(=S)c2ccccc2)ccc1Cl [Compound 63] | 4.5 (≈ 13.5 µM) | 5 (≈ 15 µM) | 4.3 (≈ 12.9 µM) | 2.2 (≈ 6.59 µM) | 0.05 (≈ 0.15 µM) | 5 (≈ 15 µM) |
| O=C(OC1CCCCC1)c1cc(NC(=S)c2ccccc2F)ccc1Cl [Compound 65] | 0.3 (≈ 0.766 µM) | 0.25 (≈ 0.638 µM) | 19 (≈ 48.5 µM) | 0.09 (≈ 0.23 µM) | 0.04 (≈ 0.102 µM) | 0.26 (≈ 0.663 µM) |
| CCC(CC)OC(=O)c1cc(NC(=O)c2ccccc2N)ccc1Cl [Compound 66] | > 10 | ≥ 10 | 25 (≈ 69.3 µM) | > 10 | 0.6 (≈ 1.66 µM) | 9 (≈ 24.9 µM) |
| CCC(CC)OC(=O)c1cc(NC(=S)c2ccccc2N)ccc1Cl [Compound 67] | ≥ 10 | > 10 | 29 (≈ 76.9 µM) | 5.5 (≈ 14.6 µM) | 0.75 (≈ 1.99 µM) | ≥ 10 |
